Where two headings read alike, the source gives them in different places. Numbered stars: 1 amine (or outer) side, 2 acyl side, 3 side chain; on linkers, the order of the positions; unused ones are H or OH. Bridge positions count the residues as written; N and C are the ends. Square brackets hold non-standard residues; d marks the D form. Side chains are listed from the residue outwards. Peptide text beside a SMILES is read from it. * marks the point of attachment. TtdsdLys(DOTA)NH2 = NC(=O)[C@@H](CCCCNC(=O)CN1CCN(CC(=O)O)CCN(CC(=O)O)CCN(CC(=O)O)CC1)NC(=O)CCC(=O)NCCCOCCOCCOCCCN*; X3 = O=C(O)CN1CCN(CC(=O)O)CCN(CC(=O)NCCCOCCOCCOCCCN*)CCN(CC(=O)O)CC1; DOTA = O=C(O)CN1CCN(CC(=O)O)CCN(CC(=O)*)CCN(CC(=O)O)CC1; Phe(3-Cl) = N[C@@H](Cc1cccc(Cl)c1)C(=O)O; Phe(4-Cl) = N[C@@H](Cc1ccc(Cl)cc1)C(=O)O; NMeT = CN[C@H](C(=O)O)[C@@H](C)O; X1 = O=C(CC1CCN([*:1])CC1)[*:2]; Suc = O=C(CCC(=O)[*:2])[*:1]; Tle = CC(C)(C)[C@H](N)C(=O)O; Propanoyl(3-OH) = O=C(CCO)*; AEEA = NCCOCCOCC(=O)O; Aib = CC(C)(N)C(=O)O
Columns and labels:
[1] = target: T1, PSMA-expressing C4-2 cells (Homo sapiens, UniProt Q04609); experiment: FACS binding assay (competition with 50 nM PSM-0183); conditions: read-out: pIC50 [C4-2] CAT (converted)
T1 construct: PSMA-expressing C4-2 cells (ATCC, Cat. No. CRL-3314) were cultured in RPMI-1640; host or cells: C4-2 cells
Procedure, shortened: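 C4-2 cells were incubated 1 h at 4 °C with 50 nM AF488-labelled peptide PSM-0183 plus increasing test compound concentrations, then washed twice in ice-cold buffer. Median fluorescence in the AF488 channel was read by flow cytometry. IC50/pIC50 was derived by 4PL fitting of MFI versus concentration.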

[2] = target: T2, Fc-fusion protein of human PSMA (hPSMA-Fc) (Homo sapiens, UniProt Q04609); experiment: Surface plasmon resonance assay (Biacore T200, single cycle kinetic); format: binding; conditions: hPSMA-Fc, 25° C., read-out: pKD CAT (converted)
T2 construct: purchased Acro Biosystems PSA-H5264
Procedure, shortened: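 hPSMA-Fc was captured (~1000 RU) on an Fc-binding-peptide CM5 chip, and compounds were run in single cycle kinetic mode at 25° C in HBST with 0.1% DMSO. Double-blank-corrected sensorgrams were fitted to a 1:1 Langmuir model to give KD, reported as pKD.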

PC3-PIP tumor model = system: PC3-PIP tumor model; parameters: species or system mice; conditions: mouse, in vivo
Excerpt: Radioactively labeled compounds can be detected by imaging methods such as SPECT and PET. Furthermore, the data acquired by such techniques can be confirmed by direct measurement of radioactivity contained in the individual organs prepared from an animal injected with a radioactively labeled compound of the disclosure. Thus, the biodistribution (the measurement of radioactivity in individual organs) of a radioactively labeled compound can be determined and analyzed. […] All animal experiments were conducted in compliance with the German animal protection laws. Male swiss or NMRI nude mice (6-8 weeks old, Janvier Labs, France) were inoculated with 5×10^6 PC3-PIP cells in the right shoulder. For selected compounds an additional model was used, here male NMRI nude mice (6-8 weeks old, Janvier Labs, France) were inoculated with 5×10^6 or/1×10^7 C4-2 cells in the right shoulder. When tumors reached an appropriate size, the mice received ˜30 MBq ^111In-labeled compounds of the disclosure (diluted to 100 μL with PBS) administered intravenously via the tail vein. Images were obtained on a NanoSPECT/computed tomography system (Mediso Medical Imaging Systems, Budapest, Hungary) using exemplarily the following acquisition and reconstruction parameters (Table 10). [table] Imaging data were saved as DICOM files and analysed using VivoQuant™ software (Invicro, Boston, USA). In brief, regions of interest (ROIs) were drawn based on computed tomography images for the relevant organs and tissue regions such as heart (estimate of blood pool, bps), kidney, and tumor. The resulting numeric data expressed as a percentage of injected dose per gram of tissue (% ID/g) are presented in FIGS. 3(a)-3(ii) for the PC3-PIP model and FIGS. 4(a)-4(r) for the C4-2 model. Bars show mean % ID/g values of two to three animals per time point. Error bars indicate the value range (minimum and maximum values).

[3] = FACS binding, C4-2 cells, competition with 50 nM PSM-0183, category
[4] = SPR, single cycle kinetic, category

T1 sequence (Q04609 whole entry): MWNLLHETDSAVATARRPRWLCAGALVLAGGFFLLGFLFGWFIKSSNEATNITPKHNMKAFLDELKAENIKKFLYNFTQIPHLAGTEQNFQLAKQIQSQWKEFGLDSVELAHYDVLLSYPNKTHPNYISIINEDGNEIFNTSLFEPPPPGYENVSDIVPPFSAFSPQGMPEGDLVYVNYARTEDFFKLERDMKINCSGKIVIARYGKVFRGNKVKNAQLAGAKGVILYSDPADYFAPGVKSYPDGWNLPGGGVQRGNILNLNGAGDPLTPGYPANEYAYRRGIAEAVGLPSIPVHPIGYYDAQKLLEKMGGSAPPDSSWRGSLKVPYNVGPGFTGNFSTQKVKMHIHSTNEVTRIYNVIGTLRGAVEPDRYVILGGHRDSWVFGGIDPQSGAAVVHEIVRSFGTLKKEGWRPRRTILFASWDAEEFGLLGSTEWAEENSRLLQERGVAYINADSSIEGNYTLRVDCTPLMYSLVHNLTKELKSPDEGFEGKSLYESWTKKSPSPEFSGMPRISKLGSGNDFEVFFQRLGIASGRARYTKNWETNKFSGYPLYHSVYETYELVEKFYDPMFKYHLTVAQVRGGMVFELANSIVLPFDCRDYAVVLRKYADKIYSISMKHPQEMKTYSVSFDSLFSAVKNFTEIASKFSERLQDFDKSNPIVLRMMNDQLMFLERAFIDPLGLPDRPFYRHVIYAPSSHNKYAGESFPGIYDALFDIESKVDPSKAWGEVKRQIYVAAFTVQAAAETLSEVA
T2 sequence (Q04609 44-750 limits assumed): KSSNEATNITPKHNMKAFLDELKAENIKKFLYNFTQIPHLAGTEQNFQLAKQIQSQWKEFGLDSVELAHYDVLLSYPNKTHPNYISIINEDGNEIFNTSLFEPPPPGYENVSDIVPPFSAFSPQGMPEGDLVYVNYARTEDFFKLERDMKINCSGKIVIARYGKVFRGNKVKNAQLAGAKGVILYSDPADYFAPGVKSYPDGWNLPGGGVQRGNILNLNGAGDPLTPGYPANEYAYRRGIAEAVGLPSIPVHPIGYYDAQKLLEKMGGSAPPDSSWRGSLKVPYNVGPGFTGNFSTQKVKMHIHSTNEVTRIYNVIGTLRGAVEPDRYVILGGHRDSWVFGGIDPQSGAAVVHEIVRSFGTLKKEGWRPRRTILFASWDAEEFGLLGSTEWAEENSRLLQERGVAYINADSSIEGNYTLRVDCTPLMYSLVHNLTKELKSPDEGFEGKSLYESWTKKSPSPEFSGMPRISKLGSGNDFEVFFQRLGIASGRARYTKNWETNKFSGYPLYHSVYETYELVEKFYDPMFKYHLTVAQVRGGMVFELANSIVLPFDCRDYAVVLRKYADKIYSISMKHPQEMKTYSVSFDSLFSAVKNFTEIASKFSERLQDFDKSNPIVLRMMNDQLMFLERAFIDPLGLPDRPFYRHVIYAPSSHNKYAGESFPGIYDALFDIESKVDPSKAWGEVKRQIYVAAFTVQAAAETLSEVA

| Compound | IC50 ([1]; pIC50 category of FACS binding, C4-2 cells) [nM] | Kd ([2]; pKD category for PSMA SPR activity assay) [nM] | AUC ratio [T/K] (PC3-PIP tumor model) | Tumor AUC (PC3-PIP tumor model) [% ID/g*h] | IC50 ([1]; FACS binding, PSMA-expressing C4-2 cells, pIC50 category) [nM] | Kd ([2]; PSMA SPR assay, pKD category) [nM] | IC50 [1, 3] [nM] | Kd [2, 4] [nM] |
| --- | --- | --- | --- | --- | --- | --- | --- | --- |
| C[C@@H]1NC(=O)[C@H](CCCNC(=N)N)NC(=O)[C@H](CCCCN)NC(=O)[C@@H](NC(=O)[C@H](Cc2ccccc2)NC(=O)C(C)(C)NC(=O)[C@@H](NC(=O)CCC(=O)NCCCOCCOCCOCCCNC(=O)CN2CCN(CC(=O)O)CCN(CC(=O)O)CCN(CC(=O)O)CC2)[C@@H](C)O)CSSC[C@@H](C(=O)N[C@H](C(=O)N[C@H](C(N)=O)[C@@H](C)O)C(C)(C)C)NC(=O)[C@H](CC(N)=O)NC1=O [PSM-0237, DOTA-Ttds-Thr-Aib-Phe-[Cys-Lys-Arg-Ala-Asn-Cys]-Tle-Thr-NH2] ({X3-Suc}-T[Aib]FCKRANC[Tle]T-NH2; disulfide 4-9) |  |  | 0.44 | 180 |  |  | < 200 | < 12.6 |
| CC(=O)N[C@H](C(=O)NC(C)(C)C(=O)N[C@@H](Cc1cccc(Cl)c1)C(=O)N[C@H]1CSSC[C@@H](C(=O)N[C@H](C(=O)N[C@H](C(N)=O)[C@@H](C)O)C(C)(C)C)NC(=O)[C@H](CC(N)=O)NC(=O)[C@H](CCCCNC(=O)COCCOCCNC(=O)CN2CCN(CC(=O)O)CCN(CC(=O)O)CCN(CC(=O)O)CC2)NC(=O)[C@H](CCCNC(=N)N)NC(=O)[C@H](CCCCN)NC1=O)[C@@H](C)O [PSM-0243, Ac-Thr-Aib-Mcf-[Cys-Lys-Arg-Lys(DOTA-O2Oc)-Asn-Cys]-Tle-Thr-NH2] (Ac-T[Aib][Phe(3-Cl)]CKRK([AEEA-DOTA])NC[Tle]T-NH2; disulfide 4-9) |  |  | 0.53 | 130 |  |  | < 200 | < 12.6 |
| C[C@@H](O)[C@H](NC(=O)[C@@H](NC(=O)[C@@H]1CSSC[C@H](NC(=O)[C@H](Cc2ccc(Cl)cc2)NC(=O)C(C)(C)NC(=O)CCO)C(=O)N[C@@H](CCCCN)C(=O)N[C@@H](CCCNC(=N)N)C(=O)NC(C)(C)C(=O)N[C@@H](CC(N)=O)C(=O)N1)C(C)(C)C)C(=O)N[C@H](CCCCNC(=O)CN1CCN(CC(=O)O)CCN(CC(=O)O)CCN(CC(=O)O)CC1)C(N)=O [PSM-0267, HPA-Aib-Pcf-[Cys-Lys-Arg-Aib-Asn-Cys]-Tle-Thr-lys(DOTA)-NH2] ({Propanoyl(3-OH)}-[Aib][Phe(4-Cl)]CKR[Aib]NC[Tle]T[dK](DOTA)-NH2; disulfide 3-8) |  |  | 1.2 | 170 |  |  | < 200 | < 12.6 |

Other lines, results leading:

| IC50 ([1]; pIC50 category of FACS binding, C4-2 cells) [nM] | Kd ([2]; pKD category for PSMA SPR activity assay) [nM] | AUC ratio [T/K] (PC3-PIP tumor model) | Tumor AUC (PC3-PIP tumor model) [% ID/g*h] | IC50 ([1]; FACS binding, PSMA-expressing C4-2 cells, pIC50 category) [nM] | Kd ([2]; PSMA SPR assay, pKD category) [nM] | IC50 [1, 3] [nM] | Kd [2, 4] [nM] | Compound |
| --- | --- | --- | --- | --- | --- | --- | --- | --- |
| < 200 | < 12.6 | 1.1 | 160 |  |  |  |  | CC(C)[C@H](NC(=O)[C@@H]1CSSC[C@H](NC(=O)[C@H](Cc2ccc(Cl)cc2)NC(=O)C(C)(C)NC(=O)[C@@H](NC(=O)CC2CCN(C(=O)CN3CCN(CC(=O)O)CCN(CC(=O)O)CCN(CC(=O)O)CC3)CC2)[C@@H](C)O)C(=O)N[C@@H](CCCCN)C(=O)N[C@@H](CCCNC(=N)N)C(=O)NC(C)(C)C(=O)N[C@@H](CC(N)=O)C(=O)N1)C(=O)N(C)[C@H](C(N)=O)[C@@H](C)O [PSM-0377, DOTA-Cmp-Thr-Aib-Pcf-[Cys-Lys-Arg-Aib-Asn-Cys]-Val-Nmt-NH2] ({DOTA}-[X1]T[Aib][Phe(4-Cl)]CKR[Aib]NCV[NMeT]-NH2; disulfide 5-10) |
|  |  | 0.91 | 210 | < 200 | < 12.6 |  |  | CC(=O)N[C@H](C(=O)NC(C)(C)C(=O)N[C@@H](Cc1ccccc1)C(=O)N[C@H]1CSSC[C@@H](C(=O)N[C@H](C(=O)N[C@H](C(=O)NCCCOCCOCCOCCCNC(=O)CCC(=O)N[C@H](CCCCNC(=O)CN2CCN(CC(=O)O)CCN(CC(=O)O)CCN(CC(=O)O)CC2)C(N)=O)[C@@H](C)O)C(C)(C)C)NC(=O)[C@H](CC(N)=O)NC(=O)C(C)(C)NC(=O)[C@H](CCCNC(=N)N)NC(=O)[C@H](CCCCN)NC1=O)[C@@H](C)O [PSM-0285, Ac-Thr-Aib-Phe-[Cys-Lys-Arg-Aib-Asn-Cys]-Tle-Thr-Ttds-lys(DOTA)-NH2] (Ac-T[Aib]FCKR[Aib]NC[Tle]T-{TtdsdLys(DOTA)NH2}; disulfide 4-9) |

From patent US20260083865A1, “PROSTATE SPECIFIC MEMBRANE ANTIGEN (PSMA) LIGANDS AND USE THEREOF” (priority 2022, published 2026)
